Laboratory results from ChEMBL document CHEMBL1201862, “PubChem BioAssay data set” (2004).
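Cultured in 96-well plates, cells were exposed to test compound for 48 hours across five concentrations. Abbreviation: GI50, concentration required for 50% inhibition of growth.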 Active and inactive are the calls of the source. No stated cut-off is given here; in the data, active = GI50 up to about 1.1 µM and inactive = higher.

Assays:
Assay in all cases: NCI-60 cell line screen, 48 h
NCI-H226 = test system: NCI-H226
LOX IMVI = test system: LOX IMVI
HL-60 = test system: HL-60
BT-549 = test system: BT-549
Hs-578T = test system: Hs-578T
SR = test system: SR
NCI-H522 = test system: NCI-H522
SK-MEL-28 = test system: SK-MEL-28
A498 = test system: A498
HOP-92 = test system: HOP-92
NCI-H460 = test system: NCI-H460
SNB-19 = test system: SNB-19
M14 = test system: M14
HCT-15 = test system: HCT-15
T47D = test system: T47D
NCI/ADR-RES = test system: NCI/ADR-RES
SK-OV-3 = test system: SK-OV-3
MOLT-4 = test system: MOLT-4
HCC 2998 = test system: HCC 2998
SNB-75 = test system: SNB-75

| SMILES | GI50 (NCI-H226) | GI50 (LOX IMVI) | GI50 (HL-60) | GI50 (BT-549) | GI50 (Hs-578T) | GI50 (SR) | GI50 (NCI-H522) | GI50 (SK-MEL-28) | GI50 (A498) | GI50 (HOP-92) | GI50 (NCI-H460) | GI50 (SNB-19) | GI50 (M14) | GI50 (HCT-15) [µM] | GI50 (T47D) | GI50 (NCI/ADR-RES) | GI50 (SK-OV-3) | GI50 (MOLT-4) | GI50 (HCC 2998) | GI50 (SNB-75) |
| --- | --- | --- | --- | --- | --- | --- | --- | --- | --- | --- | --- | --- | --- | --- | --- | --- | --- | --- | --- | --- |
| O=C(CCc1ccc(O)cc1)NCCc1ccc(O)cc1 | > 100 µM (inactive) | > 100 µM (inactive) | > 100 µM (inactive) | 62.4 µM (inactive) | > 100 µM (inactive) | > 100 µM (inactive) | > 100 µM (inactive) | > 100 µM (inactive) | > 100 µM (inactive) | > 100 µM (inactive) | > 100 µM (inactive) | > 100 µM (inactive) | > 100 µM (inactive) | > 100 | > 100 µM (inactive) | > 100 µM (inactive) | > 100 µM (inactive) | > 100 µM (inactive) | > 100 µM (inactive) | – |
| Oc1ccc(C(c2ccc(O)cc2)c2ccc(O)cc2)cc1 | 10.4 µM (inactive) | 19.3 µM (inactive) | 18.9 µM (inactive) | 20.5 µM (inactive) | 21.7 µM (inactive) | 37.1 µM (inactive) | 17.1 µM (inactive) | 19.3 µM (inactive) | 15.8 µM (inactive) | 18.1 µM (inactive) | 18.8 µM (inactive) | 24.4 µM (inactive) | – | 23.9 | 9.27 µM (inactive) | 18.9 µM (inactive) | 14 µM (inactive) | 20.6 µM (inactive) | 18 µM (inactive) | – |
| COC1CC2C=CC3C4OC2(/C(C)=C/C(C)C(C(C)O)OC1=O)C3C(O)C(C)C4OC(=O)c1ccc[nH]1 (configuration not stated) | – | 64 µM (inactive) | 16.6 µM (inactive) | 81.5 µM (inactive) | 94 µM (inactive) | 26.5 µM (inactive) | > 100 µM (inactive) | > 100 µM (inactive) | > 100 µM (inactive) | > 100 µM (inactive) | 67 µM (inactive) | > 100 µM (inactive) | > 100 µM (inactive) | 92.5 | > 100 µM (inactive) | 66.2 µM (inactive) | – | 23.4 µM (inactive) | 74.6 µM (inactive) | – |
| C(=N\c1nc2cc3sc(/N=C/c4ccccc4)nc3cc2s1)/c1ccccc1 | 20.7 µM (inactive) | 38.9 µM (inactive) | – | 54.2 µM (inactive) | > 45.9 µM (inactive) | 10.6 µM (inactive) | 17.1 µM (inactive) | > 100 µM (inactive) | > 95.7 µM (inactive) | > 76.9 µM (inactive) | 7.52 µM (inactive) | > 100 µM (inactive) | > 100 µM (inactive) | 46 | > 67.9 µM (inactive) | > 80.4 µM (inactive) | > 100 µM (inactive) | 9.75 µM (inactive) | 29.9 µM (inactive) | > 100 µM (inactive) |
| COC(=O)[C@@H]1[C@H](O)CC[C@H]2[C@@]1(C)CC[C@@H](C)[C@]2(COC(C)=O)CC(=O)c1ccoc1 | > 50 µM (inactive) | > 50 µM (inactive) | 17 µM (inactive) | > 50 µM (inactive) | > 50 µM (inactive) | > 50 µM (inactive) | 35.7 µM (inactive) | > 50 µM (inactive) | > 50 µM (inactive) | > 50 µM (inactive) | > 50 µM (inactive) | > 50 µM (inactive) | > 50 µM (inactive) | > 50 | 28.8 µM (inactive) | > 50 µM (inactive) | > 50 µM (inactive) | 28.6 µM (inactive) | – | > 50 µM (inactive) |
| CC(=O)Oc1c2c(c(CC=C(C)C)c3c1C(=O)C1=C[C@@H]4CC5C(C)(C)OC(C/C=C(/C)C(=O)O)(C4=O)[C@@]15O3)OC(C)(CCC=C(C)C)C=C2 (some centres not stated) | 0.313 µM (active) | 0.104 µM (active) | 0.0408 µM (active) | 0.205 µM (active) | 0.337 µM (active) | 0.258 µM (active) | 0.0796 µM (active) | 0.188 µM (active) | 0.65 µM (active) | 0.237 µM (active) | 0.486 µM (active) | 0.269 µM (active) | 0.282 µM (active) | 0.244 | 0.12 µM (active) | 0.525 µM (active) | 0.585 µM (active) | 0.0769 µM (active) | 0.61 µM (active) | 0.323 µM (active) |
| COc1cc2c(/C=C3/C(=O)Nc4ccc(Cl)cc43)c(Cl)[nH]c2cc1C | 1.1 µM (active) | 0.738 µM (active) | 0.366 µM (active) | 0.181 µM (active) | 0.327 µM (active) | 0.32 µM (active) | 2.16 µM (inactive) | 0.26 µM (active) | 10.6 µM (inactive) | 10.6 µM (inactive) | 0.524 µM (active) | 0.408 µM (active) | 0.962 µM (active) | 0.449 | 4.39 µM (inactive) | 0.662 µM (active) | 0.284 µM (active) | 0.294 µM (active) | – | 0.215 µM (active) |
| C=C1C[C@@H]2O[C@H]3[C@H]4[C@@H](C[C@@H](C)[C@@H](OC(C)=O)[C@H]42)[C@@H](C)CO[C@@]3(C)[C@H](OC(=O)CCCCCCC)C[C@H]1O | 10.5 µM (inactive) | 13.2 µM (inactive) | 12.4 µM (inactive) | 17.2 µM (inactive) | 14.4 µM (inactive) | 15.8 µM (inactive) | 16.4 µM (inactive) | 17.4 µM (inactive) | 16.2 µM (inactive) | 15.2 µM (inactive) | 16.1 µM (inactive) | 16.7 µM (inactive) | 20 µM (inactive) | 15.8 | 11.1 µM (inactive) | 15.9 µM (inactive) | – | 22.9 µM (inactive) | 16.9 µM (inactive) | 16.7 µM (inactive) |
| Cc1c(O)nc(/C=C/C(=O)O)nc1C(=O)O | > 100 µM (inactive) | > 100 µM (inactive) | > 100 µM (inactive) | > 100 µM (inactive) | > 100 µM (inactive) | > 100 µM (inactive) | > 100 µM (inactive) | > 100 µM (inactive) | > 100 µM (inactive) | > 100 µM (inactive) | > 100 µM (inactive) | > 100 µM (inactive) | > 100 µM (inactive) | > 100 | > 100 µM (inactive) | > 100 µM (inactive) | > 100 µM (inactive) | > 100 µM (inactive) | – | > 100 µM (inactive) |
| CCN(CC)C(=S)SS(=O)(=O)c1ccccc1C(=O)O | > 46.7 µM (inactive) | > 100 µM (inactive) | – | > 100 µM (inactive) | > 100 µM (inactive) | 3.6 µM (inactive) | 2.67 µM (inactive) | > 100 µM (inactive) | > 38 µM (inactive) | > 100 µM (inactive) | > 20 µM (inactive) | > 94.2 µM (inactive) | > 96.4 µM (inactive) | > 100 | > 36 µM (inactive) | > 100 µM (inactive) | > 100 µM (inactive) | 0.933 µM (active) | > 100 µM (inactive) | > 89.1 µM (inactive) |
| CC1=C2C(=CO[C@H](C)[C@H]2C)C(O)=C(C(=O)O)C1=O [CITRININ] | 23.3 µM (inactive) | 16.3 µM (inactive) | 11.1 µM (inactive) | 13.3 µM (inactive) | 27.5 µM (inactive) | 15.6 µM (inactive) | 12.4 µM (inactive) | 31.8 µM (inactive) | 0.782 µM (active) | 25.1 µM (inactive) | – | 21.9 µM (inactive) | 23 µM (inactive) | 16.9 | 29.2 µM (inactive) | 43.8 µM (inactive) | 71.8 µM (inactive) | 13.1 µM (inactive) | 19.1 µM (inactive) | 32.6 µM (inactive) |
